“And” between values parts separate entries of the source, which are not always exact repeats. Equal values may be shown once. Inconclusive results and toxic doses are left out.
Tested on: P388 leukemia ip, CD2F1 mice, survival T/C
Experiment: NCI In Vivo Anticancer Drug Screen. Data for tumor model P388 Leukemia (intraperitoneal) in CD2F1 (CDF1) mice
Settings: endpoint: median survival time, higher = longer survival
Procedure, shortened: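 Mice carrying the transplanted tumor received test compound or vehicle. Survival was recorded in each group, and the value is the treated-group measurement divided by that of the vehicle-treated control group.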

SMILES: COS(=O)(=O)OC1(SC)C=C(c2ccccc2)SS1 (centres undefined)
- T/C (dose: 12.5 mg/kg/injection, schedule: Q01DX001 (ip), vehicle: saline): 96 % of control
- T/C (dose: 25.0 mg/kg/injection, schedule: Q01DX001 (ip), vehicle: saline): 109 % of control and 121 % of control
- T/C (dose: 50.0 mg/kg/injection, schedule: Q01DX001 (ip), vehicle: saline): 118 % of control and 122 % of control

SMILES: C#CC1OC12CCC1C3CC=C4CC(O)CCC4(C)C3CCC12 (centres undefined)
- T/C (dose: 50.0 mg/kg/injection, schedule: Q01DX009 (ip), vehicle: suspension in saline): 93 % of control
- T/C (dose: 100.0 mg/kg/injection, schedule: Q01DX009 (ip), vehicle: suspension in saline): 94 % of control
- T/C (dose: 200.0 mg/kg/injection, schedule: Q01DX009 (ip), vehicle: suspension in saline): 87 % of control

SMILES: COc1nc(C(Cl)(Cl)Cl)c(Cl)c(OC)c1Cl
- T/C (dose: 17.8 mg/kg/injection, schedule: Q01DX005 (iv), vehicle: other): 108 % of control
- T/C (dose: 25.0 mg/kg/injection, schedule: Q01DX005 (ip), vehicle: Klucel (hydroxypropylcellulose) (HPC)): 114 % of control and 115 % of control
- T/C (dose: 26.7 mg/kg/injection, schedule: Q01DX005 (ip), vehicle: other): 111 % of control and 121 % of control
- T/C (dose: 26.7 mg/kg/injection, schedule: Q01DX005 (iv), vehicle: other): 109 % of control
- T/C (dose: 40.0 mg/kg/injection, schedule: Q01DX005 (ip), vehicle: Klucel (hydroxypropylcellulose) (HPC)): 100 % of control and 102 % of control
- T/C (dose: 60.0 mg/kg/injection, schedule: Q01DX005 (ip), vehicle: Klucel (hydroxypropylcellulose) (HPC)): 105 % of control and 107 % of control
- T/C (dose: 60.0 mg/kg/injection, schedule: Q01DX005 (iv), vehicle: other): 107 % of control
- T/C (dose: 90.0 mg/kg/injection, schedule: Q01DX005 (ip), vehicle: other): 171 % of control
- T/C (dose: 134.0 mg/kg/injection, schedule: Q01DX005 (ip), vehicle: Klucel (hydroxypropylcellulose) (HPC)): 150 % of control
- T/C (dose: 135.0 mg/kg/injection, schedule: Q01DX005 (ip), vehicle: Klucel (hydroxypropylcellulose) (HPC)): 106 % of control
- T/C (dose: 135.0 mg/kg/injection, schedule: Q01DX005 (ip), vehicle: other): 196 % of control and 207 % of control
- T/C (dose: 202.3 mg/kg/injection, schedule: Q01DX005 (ip), vehicle: Klucel (hydroxypropylcellulose) (HPC)): 105 % of control
- T/C (dose: 303.3 mg/kg/injection, schedule: Q01DX005 (ip), vehicle: Klucel (hydroxypropylcellulose) (HPC)): 168 % of control

SMILES: O=C(Nc1cccc2ccccc12)N1c2ccccc2SC12CCCC2
- T/C (dose: 1.56 mg/kg/injection, schedule: Q01DX009 (ip), vehicle: saline with Tween-80): 104 % of control
- T/C (dose: 3.13 mg/kg/injection, schedule: Q01DX009 (ip), vehicle: saline with Tween-80): 100 % of control
- T/C (dose: 6.25 mg/kg/injection, schedule: Q01DX009 (ip), vehicle: saline with Tween-80): 99 % of control and 94 % of control

SMILES: C/C=C/CC1(C)N=C1c1ccccc1 (centres undefined)
- T/C (dose: 100.0 mg/kg/injection, schedule: Q01DX001 (ip), vehicle: Klucel (hydroxypropylcellulose) (HPC)): 99 % of control
- T/C (dose: 200.0 mg/kg/injection, schedule: Q01DX001 (ip), vehicle: Klucel (hydroxypropylcellulose) (HPC)): 99 % of control
- T/C (dose: 400.0 mg/kg/injection, schedule: Q01DX001 (ip), vehicle: Klucel (hydroxypropylcellulose) (HPC)): 102 % of control

SMILES: O=[N+]([O-])c1nccn1CCCO
- T/C (dose: 12.5 mg/kg/injection, schedule: Q01DX009 (ip), vehicle: water): 98 % of control
- T/C (dose: 25.0 mg/kg/injection, schedule: Q01DX009 (ip), vehicle: water): 97 % of control
- T/C (dose: 50.0 mg/kg/injection, schedule: Q01DX009 (ip), vehicle: water): 100 % of control
- T/C (dose: 100.0 mg/kg/injection, schedule: Q01DX009 (ip), vehicle: water): 103 % of control
- T/C (dose: 200.0 mg/kg/injection, schedule: Q01DX009 (ip), vehicle: water): 100 % of control

SMILES: CN1c2ccccc2S(=O)(=O)n2c(COc3ccc(Cl)cc3)nnc21
- T/C (dose: 12.5 mg/kg/injection, schedule: Q01DX005 (ip), vehicle: saline with Tween-80): 100 % of control
- T/C (dose: 25.0 mg/kg/injection, schedule: Q01DX005 (ip), vehicle: saline with Tween-80): 100 % of control
- T/C (dose: 50.0 mg/kg/injection, schedule: Q01DX005 (ip), vehicle: saline with Tween-80): 106 % of control

SMILES: COc1c2ccoc2cc2oc(=O)ccc12
- T/C (dose: 50.0 mg/kg/injection, schedule: Q01DX005 (ip), vehicle: Klucel (hydroxypropylcellulose) (HPC)): 102 % of control
- T/C (dose: 100.0 mg/kg/injection, schedule: Q01DX005 (ip), vehicle: Klucel (hydroxypropylcellulose) (HPC)): 96 % of control
- T/C (dose: 200.0 mg/kg/injection, schedule: Q01DX005 (ip), vehicle: Klucel (hydroxypropylcellulose) (HPC)): 93 % of control

SMILES: COC1=C(C)C2CC(=O)OC3C(O)C4C(C)CC(O)C(=O)C4(C)C(C1=O)C23C (centres undefined)
- T/C (dose: 3.0 mg/kg/injection, schedule: Q01DX009 (ip), vehicle: alcohol): 105 % of control
- T/C (dose: 6.0 mg/kg/injection, schedule: Q01DX009 (ip), vehicle: alcohol): 104 % of control
- T/C (dose: 12.0 mg/kg/injection, schedule: Q01DX009 (ip), vehicle: alcohol): 107 % of control
